Assay results taken from patent publication US10294202B2, “Pyrrolidinones as herbicides” (FMC Corporation, priority 2013, dated 2019).

Experiments:
barnyardgrass [1] = assay: Test A pre-/postemergence herbicide test; format: in vivo, Echinochloa crus-galli; conditions: for Barnyardgrass plant response rating: Preemergence, visual rating on 0 to 100 scale (0 no effect, 100 complete control)
How it was run: (§1)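 Seeds in loam–sand blend received preemergence directed soil spray; separately, plants 2–10 cm at one- to two-leaf stage received postemergence spray, both with test chemicals in non-phytotoxic solvent with surfactant. After ~10 days in greenhouse, injury rated visually against untreated controls, 0 (no effect) to 100 (complete control).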

crabgrass, large = assay: Test A pre-/postemergence herbicide test; format: in vivo, Digitaria sanguinalis; conditions: for Crabgrass, Large plant response rating: Preemergence, visual rating on 0 to 100 scale (0 no effect, 100 complete control)
How it was run: as §1

giant foxtail = assay: Test A pre-/postemergence herbicide test; format: in vivo, Setaria faberii; conditions: for Foxtail, Giant plant response rating: Preemergence, visual rating on 0 to 100 scale (0 no effect, 100 complete control)
How it was run: as §1

morningglory = assay: Test A pre-/postemergence herbicide test; format: in vivo, Ipomoea spp.; conditions: for Morningglory plant response rating: Preemergence, visual rating on 0 to 100 scale (0 no effect, 100 complete control)
How it was run: as §1

pigweed = assay: Test A pre-/postemergence herbicide test; format: in vivo, Amaranthus retroflexus; conditions: for Pigweed plant response rating: Preemergence, visual rating on 0 to 100 scale (0 no effect, 100 complete control)
How it was run: as §1

velvetleaf = assay: Test A pre-/postemergence herbicide test; format: in vivo, Abutilon theophrasti; conditions: for Velvetleaf plant response rating: Preemergence, visual rating on 0 to 100 scale (0 no effect, 100 complete control)
How it was run: as §1

wheat = assay: Test A pre-/postemergence herbicide test; format: in vivo, Triticum aestivum; conditions: for Wheat plant response rating: Preemergence, visual rating on 0 to 100 scale (0 no effect, 100 complete control)
How it was run: as §1

corn = assay: Test A pre-/postemergence herbicide test; format: in vivo, Zea mays; conditions: for Corn plant response rating: Preemergence, visual rating on 0 to 100 scale (0 no effect, 100 complete control)
How it was run: as §1

rice = assay: Test B flooded paddy test; format: in vivo, Oryza sativa; conditions: 250 g ai/ha, Flood; scale of 0 to 100 where 0 is no effect and 100 is complete control
How it was run: (§2)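 Visual ratings from 0, meaning no effect, up to 100, meaning complete control, were made by comparison with untreated controls 13 to 15 days after treatment. Test compounds went straight into floodwater standing 3 cm over the soil of pots holding 2-leaf seedlings.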

sedge, umbrella = assay: Test B flooded paddy test; format: in vivo, Cyperus difformis; conditions: 250 g ai/ha, Flood; scale of 0 to 100 where 0 is no effect and 100 is complete control
How it was run: as §2

ducksalad = assay: Test B flooded paddy test; format: in vivo, Heteranthera limosa; conditions: 250 g ai/ha, Flood; scale of 0 to 100 where 0 is no effect and 100 is complete control
How it was run: as §2

barnyardgrass [2] = assay: Test B flooded paddy test; format: in vivo, Echinochloa crus-galli; conditions: 250 g ai/ha, Flood; scale of 0 to 100 where 0 is no effect and 100 is complete control
How it was run: as §2

[3] = Postemergence, 125 g ai/ha, 0 to 100 scale, 0 no effect, 100 complete control
[4] = Postemergence, 500 g ai/ha, 0 to 100 scale (0 no effect, 100 complete control)
[5] = preemergence, 500 g ai/ha, 0 to 100 scale (0 no effect, 100 complete control)
[6] = preemergence, 500 g ai/ha, 0 to 100 scale

O=C1NCC(c2ccc(F)c(F)c2)C1C(=O)Nc1cccc[n+]1[O-] (stereo not shown) [Compound 47]
Plant response rating, Barnyardgrass (barnyardgrass [1]; [3]): 0
Plant response rating, Barnyardgrass (barnyardgrass [1]; [4]): 0
Barnyardgrass plant response rating (barnyardgrass [1]; 125 g ai/ha): 0
Plant response rating, Barnyardgrass (barnyardgrass [1]; [5]): 0
Plant response rating, Crabgrass, Large (crabgrass, large; [3]): 0
Plant response rating, Crabgrass, Large (crabgrass, large; [4]): 0
Crabgrass, Large plant response rating (crabgrass, large; 125 g ai/ha): 10
Plant response rating, Crabgrass, Large (crabgrass, large; [6]): 60
Plant response rating, Foxtail, Giant (giant foxtail; [3]): 0
Plant response rating, Foxtail, Giant (giant foxtail; [4]): 0
Foxtail, Giant plant response rating (giant foxtail; 125 g ai/ha): 0
Plant response rating, Foxtail, Giant (giant foxtail; [6]): 0
Plant response rating, Morningglory (morningglory; [3]): 0
Plant response rating, Morningglory (morningglory; [4]): 20
Morningglory plant response rating (morningglory; 125 g ai/ha): 0
Plant response rating, Morningglory (morningglory; [6]): 0
Plant response rating, Pigweed (pigweed; [3]): 0
Plant response rating, Pigweed (pigweed; [4]): 0
Pigweed plant response rating (pigweed; 125 g ai/ha): 0
Plant response rating, Pigweed (pigweed; [6]): 0
Plant response rating, Velvetleaf (velvetleaf; [3]): 0
Plant response rating, Velvetleaf (velvetleaf; [4]): 0
Velvetleaf plant response rating (velvetleaf; 125 g ai/ha): 0
Plant response rating, Velvetleaf (velvetleaf; [6]): 0
Plant response rating, Wheat (wheat; [3]): 0
Plant response rating, Wheat (wheat; [4]): 0
Wheat plant response rating (wheat; 125 g ai/ha): 0
Plant response rating, Wheat (wheat; [6]): 0
Corn plant response rating (corn; 125 g ai/ha): 0
Plant response rating, Corn (corn; [6]): 0
Plant response rating, Rice (rice): 0
Plant response rating, Sedge, Umbrella (sedge, umbrella): 0
Plant response rating, Ducksalad (ducksalad): 0
Plant response rating, Barnyardgrass (barnyardgrass [2]): 0

O=C1NCC(c2cc(F)c(F)c(F)c2)C1C(=O)Nc1cccc([N+](=O)[O-])c1 (stereo not shown) [Compound 49]
Plant response rating, Barnyardgrass (barnyardgrass [1]; [3]): 0
Plant response rating, Barnyardgrass (barnyardgrass [1]; [4]): 20
Barnyardgrass plant response rating (barnyardgrass [1]; 125 g ai/ha): 0
Plant response rating, Barnyardgrass (barnyardgrass [1]; [5]): 20
Plant response rating, Crabgrass, Large (crabgrass, large; [3]): 20
Plant response rating, Crabgrass, Large (crabgrass, large; [4]): 70
Crabgrass, Large plant response rating (crabgrass, large; 125 g ai/ha): 70
Plant response rating, Crabgrass, Large (crabgrass, large; [6]): 90
Plant response rating, Foxtail, Giant (giant foxtail; [3]): 0
Plant response rating, Foxtail, Giant (giant foxtail; [4]): 40
Foxtail, Giant plant response rating (giant foxtail; 125 g ai/ha): 20
Plant response rating, Foxtail, Giant (giant foxtail; [6]): 70
Plant response rating, Morningglory (morningglory; [3]): 0
Plant response rating, Morningglory (morningglory; [4]): 0
Morningglory plant response rating (morningglory; 125 g ai/ha): 0
Plant response rating, Morningglory (morningglory; [6]): 0
Plant response rating, Pigweed (pigweed; [3]): 0
Plant response rating, Pigweed (pigweed; [4]): 0
Pigweed plant response rating (pigweed; 125 g ai/ha): 0
Plant response rating, Pigweed (pigweed; [6]): 0
Plant response rating, Velvetleaf (velvetleaf; [3]): 0
Plant response rating, Velvetleaf (velvetleaf; [4]): 0
Velvetleaf plant response rating (velvetleaf; 125 g ai/ha): 0
Plant response rating, Velvetleaf (velvetleaf; [6]): 0
Plant response rating, Wheat (wheat; [3]): 0
Plant response rating, Wheat (wheat; [4]): 0
Wheat plant response rating (wheat; 125 g ai/ha): 0
Plant response rating, Wheat (wheat; [6]): 0
Plant response rating, Corn (corn; [3]): 0
Plant response rating, Corn (corn; [4]): 0
Corn plant response rating (corn; 125 g ai/ha): 0
Plant response rating, Corn (corn; [6]): 0
Plant response rating, Rice (rice): 0
Plant response rating, Sedge, Umbrella (sedge, umbrella): 40
Plant response rating, Ducksalad (ducksalad): 70
Plant response rating, Barnyardgrass (barnyardgrass [2]): 0

O=C1NCC(c2cc(F)c(F)cc2F)C1C(=O)Nc1ccccc1F (stereo not shown) [Compound 51]
Plant response rating, Barnyardgrass (barnyardgrass [1]; [3]): 0
Plant response rating, Barnyardgrass (barnyardgrass [1]; [4]): 20
Barnyardgrass plant response rating (barnyardgrass [1]; 125 g ai/ha): 0
Plant response rating, Barnyardgrass (barnyardgrass [1]; [5]): 0
Plant response rating, Crabgrass, Large (crabgrass, large; [3]): 20
Plant response rating, Crabgrass, Large (crabgrass, large; [4]): 80
Crabgrass, Large plant response rating (crabgrass, large; 125 g ai/ha): 90
Plant response rating, Crabgrass, Large (crabgrass, large; [6]): 90
Plant response rating, Foxtail, Giant (giant foxtail; [3]): 0
Plant response rating, Foxtail, Giant (giant foxtail; [4]): 30
Foxtail, Giant plant response rating (giant foxtail; 125 g ai/ha): 30
Plant response rating, Foxtail, Giant (giant foxtail; [6]): 90
Plant response rating, Morningglory (morningglory; [3]): 0
Plant response rating, Morningglory (morningglory; [4]): 0
Morningglory plant response rating (morningglory; 125 g ai/ha): 0
Plant response rating, Morningglory (morningglory; [6]): 0
Plant response rating, Pigweed (pigweed; [3]): 0
Plant response rating, Pigweed (pigweed; [4]): 0
Pigweed plant response rating (pigweed; 125 g ai/ha): 0
Plant response rating, Pigweed (pigweed; [6]): 0
Plant response rating, Velvetleaf (velvetleaf; [3]): 0
Plant response rating, Velvetleaf (velvetleaf; [4]): 0
Velvetleaf plant response rating (velvetleaf; 125 g ai/ha): 0
Plant response rating, Velvetleaf (velvetleaf; [6]): 0
Plant response rating, Wheat (wheat; [3]): 0
Plant response rating, Wheat (wheat; [4]): 0
Wheat plant response rating (wheat; 125 g ai/ha): 0
Plant response rating, Wheat (wheat; [6]): 0
Plant response rating, Corn (corn; [3]): 0
Plant response rating, Corn (corn; [4]): 0
Corn plant response rating (corn; 125 g ai/ha): 0
Plant response rating, Corn (corn; [6]): 0
Plant response rating, Rice (rice): 15
Plant response rating, Sedge, Umbrella (sedge, umbrella): 45
Plant response rating, Ducksalad (ducksalad): 80
Plant response rating, Barnyardgrass (barnyardgrass [2]): 20
